Laboratory results as given in patent US11299524B2, “KIF13B-derived peptide and method of inhibiting angiogenesis” (THE BOARD OF TRUSTEES OF THE UNIVERSITY OF ILLINOIS, priority 2016, dated 2022).

Assays:
HUVECs [1] = assay: VEGF-induced capillary network formation on […] in vitro; assay type: cell-based, human; conditions: synthetic peptide added
Description: (§1) Collagen invasion assay was performed as previously described (Kang, et al. (2011) J. Biol. Chem. 286:42017-26). In vitro capillary network formation on […] (BD Biosciences, San Jose, Calif.) and scratch wound healing assay were performed as previously described (Humtsoe, et al. (2010) Mol. Cell Biol. 30:1593-1606). Fibrin gel sprouting assay was performed as described by Nakatsu & Hughes ((2008) Methods Enzymol. 443:65-82). VEGF (2.2 nmol/L) stimulation was used for all in vitro angiogenesis assays. Transwell migration assay was performed as described by Kaplan, et al. ((2011) Free Radical Res. 45:1124-35) using VEGF (4.4 nmol/L), sphingosine-1-phosphate (S1P) (1 μmol/L), or basic fibroblast growth factor (bFGF) (50 ng/mL) in the presence or absence of kinesin-derived angiogenesis inhibitor (DUF2C5; residues 1238-1260 of KIF13B) at varying concentrations.
To test the bioactivity of the truncated mutant of KIF13B, DUF2C was expressed by lentivirus vector in HUVECs. […] The collagen invasion system (Kang, et al. (2011) J. Biol. Chem. 286:42017-42026) was used as another angiogenesis assay to test the peptides. After infection with control lentivirus, FLAG-DUF2C, or FLAG-DUF2, HUVECs were seeded on collagen gels. Cell invasion in response to proangiogenic stimuli SIP and VEGF in the gel was monitored for up to 24 hours.
Bioactivities in two-dimensional capillary network formation assay were assessed in HUVECs expressing KIF13B truncated mutants or vector controls. HUVECs were infected with lentiviruses encoding FLAG-C2, -C3, -C5, -C8, -C9, or vector.
Changes in VEGF-induced network formation assay were assessed in […] plugs. […] VEGF-induced EC sprouting was also determined by 3-dimensional culture of HUVECs on beads (Nakatsu & Hughes (2008) Methods Enzymol. 443:65-82).

HUVECs [2] = assay: VEGF-induced proliferation, WST-1 assay; assay type: cell-based, human; conditions: 3 μmol/L
Description: VEGF-induced proliferation and viability of HUVECs were assessed by the WST-1 assay (Roche) as previously described (Cai, et al. (2006) Microvasc. Res. 71:20-31; Jones, eta 1. (2005) Br. J. Pharmacol. 145:1093-102). […] Then HUVECs were stimulated with VEGF (2.2 nmol/L), with and without DUF2C5 (1, 3, and 10 μmol/L), or negative control peptide (CT23, 3 μmol/L) for 48 hours to test VEGF-induced proliferation by WST-1 assay in a 96-well format.
The effects of DUF2C5 on VEGF-induced proliferation were subsequently determined by the WST-1 assay.

HUVECs [3] = assay: […] migration assay; assay type: cell-based, human; conditions: TRANSWELL
Description: Specificity of the inhibitory effect of DUF2C5 was determined by EC migration induced by different stimuli in a […] migration assay. HUVECs migrated toward 2.2 nmol/L VEGF, 50 ng/mL basic fibroblast growth factor (bFGF), or 1 μmol/L sphingosine-1-phosphate (S1P) were visualized by hematoxylin staining, and number of migrated cells were counted. Data are expressed as means±SEM. N=3. *P<0.05 (one-way analysis of variance and Bonferroni multiple comparisons test).
as §1
EC migration in response to DUF2C5 was determined using the scratch wound healing assay. […] The […] migration assay was also employed to determine whether the inhibitory effect of DUF2C5 on EC migration was specific to VEGF. HUVECs were placed in the […] chamber with or without DUF2C5 or CT23. […] PBS and CT23 had no effect on EC migration induced by all stimuli.

EGFR = molecular target: T1, EGFR (Homo sapiens, UniProt P00533); assay: pull-down on streptavidin beads followed by mass spec analysis; assay type: binding; conditions: peptide immobilized on streptavidin beads
T1 construct: endogenous in cells
Description: (§2) Additionally, the sequence of DUF2C5 is highly conserved in mammalian KIF13B. […] To further test the specificity of DUF2C5, pull-down of proteins was conducted using DUF2C5 or control peptide (CT23) immobilized on streptavidin beads followed by mass spec analysis of the binding proteins. This analysis detected the presence of KIF13B, VEGFR2, and co-receptor NRP1 (number of hits were 28, 11, and 5, respectively). Tie2, Par1, S1PR1, and FGFR were not found. Other cargo for KIF13B (e.g., CentA, hDlg) were also not found. […] The affinity of each receptor tyrosine kinase was subsequently tested via surface plasmon resonance (SPR) with BIACORE (UIC, RRC), using DUF2C5 and CT23 on an avidin-coated chip, and recombinant cytosolic domain of kinases (Fisher Scientific).

PDGFRα = molecular target: T2, PDGFRα (Homo sapiens, UniProt P16234); assay: as above; assay type: binding; conditions: peptide immobilized on streptavidin beads
T2 construct: endogenous in cells
Description: as §2

VEGFR2 = VEGFR2 (Homo sapiens, UniProt P35968); assay: pull-down binding assay with endogenous VEGFR2 from HUVEC lysates; set-up: endogenous in cells; host or cells: HUVEC; conditions: HUVEC lysate, anti-VEGFR2 western blot
From the text: Truncated mutants of KIF13B were expressed in BL21 (DE3) or Rosetta-gami and purified as previously described (Yamada, et al. (2014) J. Cell Sci. 127:4518-30; Yamada, et al. (2007) Biochemistry 46:10039-45).
Using recombinant proteins, the binding sites on KIF13B mediating the interaction with VEGFR2 were identified. KIF13B has a motor, forkhead-associated, membrane-associated guanylate kinase-binding stalk, 2 domains of unknown function (DUFs) (DUF3694), and a proline-rich and cytoskeleton-associated protein glycine-rich domain. The DUFs were identified from amino acid sequence similarity on the Pfam database. It has been previously shown that both domains of DUF3694 directly bind recombinant VEGFR2 in vitro (Yamada, et al. (2007) Biochemistry 46:10039-45). To define the specific peptide sequence inhibiting VEGFR2 trafficking, further analysis of the second DUF3694 domain (DUF2, residues 1112-1281 of KIF13B) was carried out. This was based on stability of this domain and a sequence distinct from binding sites for other cargoes of KIF13B (Horiguchi, et al. (2006) J. Cell Biol. 174:425-436; Hanada, et al. (2000) J. Biol. Chem. 275:28774-2878). DUF2 was divided into 3 parts, DUF2A (residues […]), DUF2B (residues 1168-1216), and DUF2C (residues 1217-1281) and each part was expressed as a recombinant protein in bacteria. VEGFR2 was abundantly expressed in HUVECs; thus, cell lysate from HUVECs was incubated with these recombinant proteins on beads, and VEGFR2 binding was determined using the anti-VEGFR2 antibody.
To identify the minimum binding site on VEGFR2, DUF2C was further truncated (DUF2C1-9) (FIG. 1). […] Stability of the C5 peptide was attributed to the 4-6 C-terminal residues. Accordingly, replacing these C-terminal residues with another a peptide, one or more post-translational modifications, one or more non-natural amino acid residues, a macromolecule such as PEG, or a combination thereof, is expected to stabilize the KAI peptide.
Initially, peptide interaction with VEGFR2 was confirmed using the pull-down assay.
To further define the KIF13B residues involved in binding to VEGFR2, truncations of the DUF2C5 peptide were tested for binding to VEGFR2 (Table 3) and compared to binding of DUF2C5 and peptides flanking this region (FIG. 1).

VEGFR2, sequence (P35968 20-1356): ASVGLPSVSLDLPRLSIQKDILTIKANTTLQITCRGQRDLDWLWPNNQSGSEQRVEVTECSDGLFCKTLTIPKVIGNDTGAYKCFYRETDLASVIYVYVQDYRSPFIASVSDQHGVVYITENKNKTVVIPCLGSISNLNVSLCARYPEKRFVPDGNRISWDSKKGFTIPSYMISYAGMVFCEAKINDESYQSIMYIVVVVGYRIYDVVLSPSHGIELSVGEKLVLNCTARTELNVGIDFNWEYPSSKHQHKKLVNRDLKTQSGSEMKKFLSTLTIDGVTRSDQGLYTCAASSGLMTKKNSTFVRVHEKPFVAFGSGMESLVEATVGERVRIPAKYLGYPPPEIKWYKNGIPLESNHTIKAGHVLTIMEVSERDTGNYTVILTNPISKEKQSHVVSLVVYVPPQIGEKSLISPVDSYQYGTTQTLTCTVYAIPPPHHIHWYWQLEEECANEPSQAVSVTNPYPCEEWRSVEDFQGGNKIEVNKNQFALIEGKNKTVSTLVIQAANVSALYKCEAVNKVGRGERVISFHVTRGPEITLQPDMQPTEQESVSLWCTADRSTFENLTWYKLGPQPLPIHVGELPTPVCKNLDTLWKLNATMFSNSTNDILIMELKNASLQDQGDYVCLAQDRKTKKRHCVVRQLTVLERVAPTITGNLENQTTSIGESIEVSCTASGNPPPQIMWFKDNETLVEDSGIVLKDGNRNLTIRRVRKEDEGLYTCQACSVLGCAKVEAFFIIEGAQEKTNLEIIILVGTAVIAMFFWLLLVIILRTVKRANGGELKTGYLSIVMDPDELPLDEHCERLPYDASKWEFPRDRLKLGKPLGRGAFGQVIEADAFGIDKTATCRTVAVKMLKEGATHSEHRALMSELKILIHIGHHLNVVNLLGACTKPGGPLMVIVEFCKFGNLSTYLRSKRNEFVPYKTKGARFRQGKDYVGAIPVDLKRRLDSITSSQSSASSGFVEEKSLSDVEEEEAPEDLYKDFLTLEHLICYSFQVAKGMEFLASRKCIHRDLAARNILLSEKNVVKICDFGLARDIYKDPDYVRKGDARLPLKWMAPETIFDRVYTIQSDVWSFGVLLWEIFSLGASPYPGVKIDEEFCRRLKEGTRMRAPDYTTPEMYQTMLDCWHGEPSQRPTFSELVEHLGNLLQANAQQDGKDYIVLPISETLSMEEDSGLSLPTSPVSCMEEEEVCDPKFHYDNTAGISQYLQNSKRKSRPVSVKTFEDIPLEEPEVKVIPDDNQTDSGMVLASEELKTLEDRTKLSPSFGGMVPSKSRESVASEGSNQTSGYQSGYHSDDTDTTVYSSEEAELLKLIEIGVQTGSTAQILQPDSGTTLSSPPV
T2 sequence (P16234 24-1089): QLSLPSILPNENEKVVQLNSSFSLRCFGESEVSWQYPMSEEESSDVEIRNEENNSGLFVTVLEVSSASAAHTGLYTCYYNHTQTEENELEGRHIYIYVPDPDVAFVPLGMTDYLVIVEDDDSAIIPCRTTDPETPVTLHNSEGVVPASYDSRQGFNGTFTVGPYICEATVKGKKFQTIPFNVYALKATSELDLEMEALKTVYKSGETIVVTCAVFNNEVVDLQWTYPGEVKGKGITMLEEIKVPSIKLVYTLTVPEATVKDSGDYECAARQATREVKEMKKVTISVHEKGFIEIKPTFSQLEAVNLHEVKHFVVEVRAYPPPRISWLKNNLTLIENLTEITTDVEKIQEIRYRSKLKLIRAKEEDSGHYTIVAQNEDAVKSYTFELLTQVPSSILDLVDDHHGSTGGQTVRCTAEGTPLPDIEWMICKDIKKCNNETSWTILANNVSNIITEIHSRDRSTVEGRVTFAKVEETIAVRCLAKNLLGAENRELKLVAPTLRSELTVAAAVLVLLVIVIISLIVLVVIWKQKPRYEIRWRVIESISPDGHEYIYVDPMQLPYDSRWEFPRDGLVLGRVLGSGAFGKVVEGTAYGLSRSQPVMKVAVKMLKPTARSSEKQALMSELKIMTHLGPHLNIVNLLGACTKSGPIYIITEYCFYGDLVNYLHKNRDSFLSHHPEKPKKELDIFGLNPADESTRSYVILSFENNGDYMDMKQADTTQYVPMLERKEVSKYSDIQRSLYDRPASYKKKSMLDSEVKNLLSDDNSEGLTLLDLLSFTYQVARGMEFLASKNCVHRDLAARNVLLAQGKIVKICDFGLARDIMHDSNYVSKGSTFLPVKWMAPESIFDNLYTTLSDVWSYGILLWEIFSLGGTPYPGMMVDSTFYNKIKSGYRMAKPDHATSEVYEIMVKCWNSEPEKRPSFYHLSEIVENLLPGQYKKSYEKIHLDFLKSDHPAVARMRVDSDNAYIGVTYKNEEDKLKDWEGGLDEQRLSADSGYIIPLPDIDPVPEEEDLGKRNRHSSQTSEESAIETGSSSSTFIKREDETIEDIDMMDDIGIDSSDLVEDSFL

Substance: CT23: negative control, C-terminal 23-amino acid peptide, residues 1650 to 1672 of KIF13B (RVRASELRSFSRMLAGDPGCSPG)
- VEGF-induced network formation (HUVECs [1]): had no effect
- VEGF-induced proliferation (HUVECs [2]): had no effect
- bFGF-induced EC migration (HUVECs [3]; stimulus 50 ng/mL bFGF): had no effect
- S1P-induced EC migration (HUVECs [3]; stimulus 1 μmol/L S1P): had no effect
- VEGF-induced EC migration (HUVECs [3]; stimulus VEGF): had no effect
- EGFR among binding proteins, number of hits (EGFR): did not interact
- PDGFRα among binding proteins, number of hits (PDGFRα): did not interact
- VEGFR2 binding (VEGFR2): did not interact with VEGFR2
